Laboratory results from patent US20240293413A1, “COMPOUND AND METHOD FOR TREATING CHEMOTHERAPY-RELATED GASTROINTESTINAL SIDE EFFECTS” (ONQUALITY PHARMACEUTICALS CHINA LTD., priority 2021, published 2024).

Tested on: Chemotherapeutic agent-caused diarrhea models of Balb/c mice
Test: Examples 1-229 (Table 3): oral CDK inhibitor, relief of diarrhea caused by a chemotherapeutic agent;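 further: percent of treated mice whose diarrhea grade fell below chemotherapy-group average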
Format: in vivo
From the text: Construction of mouse animal models: Chemotherapeutic agent-caused diarrhea models of Balb/c mice were constructed according to the administration mode and frequency of the chemotherapeutic agent as shown in Table 3.
Balb/c mice were fed for 1 week, and then divided into groups. The experiment was divided into a control group, a chemotherapeutic agent group, and a CDK inhibitor group, each of which comprised 10 mice, to perform the administration experiment, for which the administration dosage, mode, time and frequency were shown in Table 3. The control group: being intragastrically administered with the same solvent as that used in the CDK inhibitor group (the time was shown in Table 3), and then being injected/intragastrically administered with the same solvent as that used in the chemotherapeutic agent group (the administration mode was shown in Table 3): the chemotherapeutic agent group: being intragastrically administered with the same solvent as that used in the CDK inhibitor group (the time was shown in Table 3), and then being injected/intragastrically administered with the chemotherapeutic agent (the type, administration mode and dosage were shown in Table 3); the CDK inhibitor group: being intragastrically administered with the CDK inhibitor (the time was shown in Table 3), and then being administered with the chemotherapeutic agent (the mode and dosage were shown in Table 3).
The diarrhea grading of mice was observed and recorded every day.

COc1ccc(F)c(F)c1C(=O)c1cnc(NC2CCN(S(C)(=O)=O)CC2)nc1N [RO4584820]
Relative remission rate (%) (Example 218, Fluorouracil 100 mg/kg and irinotecan 200 mg/kg intravenous injection single, CDK inhibitor oral 70 mg/kg single, 4 h before, 10 days): 50%

CC(=O)c1c(C)c2cnc(N[C@@H]3CCOC[C@H]3O)cc2n(C2CCCC2)c1=O [PF-06842874]
Relative remission rate (%) (Example 210, Carboplatin 5 mg/kg and paclitaxel 10 mg/kg intraperitoneal injection single, CDK inhibitor oral 80 mg/kg single, 6 h before, 10 days): 40% | Relative remission rate (%) (Example 222, Fluorouracil 100 mg/kg and oxaliplatin 10 mg/kg intraperitoneal injection single, CDK inhibitor oral 80 mg/kg single, 4 h before, 10 days): 30%

O=C1Nc2ccc([N+](=O)[O-])cc2/C1=C1/Nc2ccc(O)cc2/C1=N\O [AGM-130]
Relative remission rate (%) (Example 39, Fluorouracil (5-Fu) intraperitoneal injection 125 mg/kg single, CDK inhibitor oral 80 mg/kg single 12 h before, cycle 10 days): 30%

CN1C/C=C/CCOc2cccc(c2)-c2ccnc(n2)Nc2cccc(c2)C1 [Zotiraciclib]
Relative remission rate (%) (Example 33, Fluorouracil (5-Fu) intraperitoneal injection 125 mg/kg single, CDK inhibitor oral 100 mg/kg single 4 h before, cycle 10 days): 20% | Relative remission rate (%) (Example 152, Docetaxel (DTX) intraperitoneal injection 10 mg/kg single, CDK inhibitor oral 100 mg/kg single 8 h before, cycle 8 days): 30%

Cl.Cl.Cl.Cl.OC[C@@H](O)[C@@H](CO)N1CCNCCNCCNCC1 [CS-3002]
Relative remission rate (%) (Example 149, Docetaxel (DTX) intraperitoneal injection 10 mg/kg single, CDK inhibitor oral 200 mg/kg single 4 h before, cycle 8 days): 70% | Relative remission rate (%) (Example 223, Fluorouracil 100 mg/kg and oxaliplatin 10 mg/kg intraperitoneal injection single, CDK inhibitor oral 200 mg/kg single, 2 h before, 10 days): 50%

CN1CC[C@H](c2c(OP(=O)(O)O)cc(O)c3c(=O)cc(-c4ccccc4Cl)oc23)[C@H](O)C1 [TP-1287]
Relative remission rate (%) (Example 37, Fluorouracil (5-Fu) intraperitoneal injection 125 mg/kg single, CDK inhibitor oral 10 mg/kg single 10 h before, cycle 10 days): 40%

O=C(NC1CCNCC1)c1[nH]ncc1NC(=O)c1c(Cl)cccc1Cl [AT-7519]
Relative remission rate (%) (Example 205, Gemcitabine 60 mg/kg and paclitaxel 10 mg/kg intravenous injection single, CDK inhibitor oral 50 mg/kg single, 4 h before, 8 days): 20%

CN1CC[C@H](c2c(O)cc(O)c3c(=O)cc(-c4ccccc4Cl)oc23)[C@H](O)C1 [Alvocidib]
Relative remission rate (%) (Example 119, Irinotecan (CPT-11) intraperitoneal injection 240 mg/kg single, CDK inhibitor oral 70 mg/kg single 6 h before, cycle 7 days): 40% | Relative remission rate (%) (Example 201, Gemcitabine 60 mg/kg and paclitaxel 10 mg/kg intravenous injection single, CDK inhibitor oral 70 mg/kg single, 6 h before, 8 days): 50%

CN1CCN(C2CCN(c3ccc(Nc4ncc5sc(C(=O)N(C)C)c(C6CCCC6)c5n4)nc3)CC2)CC1 [FCN437]
Relative remission rate (%) (Example 147, Docetaxel (DTX) intraperitoneal injection 10 mg/kg single, CDK inhibitor oral 90 mg/kg single 8 h before, cycle 8 days): 60% | Relative remission rate (%) (Example 206, Carboplatin 5 mg/kg and paclitaxel 10 mg/kg intraperitoneal injection single, CDK inhibitor oral 90 mg/kg single, 4 h before, 10 days): 40%

COc1cc(F)ccc1-c1ncnc(Nc2cccc(C[S@](C)(=N)=O)c2)n1 [Atuveciclib]
Relative remission rate (%) (Example 158, Docetaxel (DTX) intraperitoneal injection 10 mg/kg single, CDK inhibitor oral 50 mg/kg single 10 h before, cycle 8 days): 30%

CC1=Nc2c(F)cc(-c3nc(Nc4ccc(C5CCN(C)CC5)cn4)ncc3F)cc2C12CCCC2 [GLR2007]
Relative remission rate (%) (Example 155, Docetaxel (DTX) intraperitoneal 10 mg/kg single, CDK inhibitor oral 60 mg/kg single 8 h before, cycle 8 days): 50% | Relative remission rate (%) (Example 168, Docetaxel (DTX) intravenous injection 10 mg/kg single, CDK inhibitor oral 60 mg/kg single 4 h before, cycle 8 days): 30% | Relative remission rate (%) (Example 191, Gemcitabine (GEM) intraperitoneal injection 120 mg/kg single, CDK inhibitor oral 60 mg/kg single, 10 h before, 8 days): 50%

CC(C)N1CCN(c2ccc(Nc3ncc4cc5n(c4n3)C3(CCCCC3)CNC5=O)nc2)CC1 [G1T38]
Relative remission rate (%) (Example 40, Fluorouracil (5-Fu) intraperitoneal injection 125 mg/kg single, CDK inhibitor oral 150 mg/kg single 1 h before, cycle 10 days): 20% | Relative remission rate (%) (Example 41, Fluorouracil (5-Fu) intraperitoneal injection 125 mg/kg single, CDK inhibitor oral 150 mg/kg single 4 h before, cycle 10 days): 40% | Relative remission rate (%) (Example 42, Fluorouracil (5-Fu) intraperitoneal injection 125 mg/kg single, CDK inhibitor oral 150 mg/kg single 8 h before, cycle 10 days): 70% | Relative remission rate (%) (Example 43, Fluorouracil (5-Fu) intraperitoneal injection 125 mg/kg single, CDK inhibitor oral 150 mg/kg single 16 h before, cycle 10 days): 50% | Relative remission rate (%) (Example 79, Oxaliplatin intraperitoneal injection 20 mg/kg single, CDK inhibitor oral 150 mg/kg single 1 h before, cycle 8 days): 20% | Relative remission rate (%) (Example 80, Oxaliplatin intraperitoneal injection 20 mg/kg single, CDK inhibitor oral 150 mg/kg single 2 h before, cycle 8 days): 40% | Relative remission rate (%) (Example 81, Oxaliplatin intraperitoneal injection 20 mg/kg single, CDK inhibitor oral 150 mg/kg single 4 h before, cycle 8 days): 40% | Relative remission rate (%) (Example 82, Oxaliplatin intraperitoneal injection 20 mg/kg single, CDK inhibitor oral 150 mg/kg single 8 h before, cycle 8 days): 70% | Relative remission rate (%) (Example 83, Oxaliplatin intraperitoneal injection 20 mg/kg single, CDK inhibitor oral 150 mg/kg single 12 h before, cycle 8 days): 70% | Relative remission rate (%) (Example 84, Oxaliplatin intraperitoneal injection 20 mg/kg single, CDK inhibitor oral 150 mg/kg single 16 h before, cycle 8 days): 50% | Relative remission rate (%) (Example 125, Irinotecan (CPT-11) intraperitoneal injection 240 mg/kg single, CDK inhibitor oral 150 mg/kg single 4 h before, cycle 7 days): 50% | Relative remission rate (%) (Example 126, Irinotecan (CPT-11) intraperitoneal injection 240 mg/kg single, CDK inhibitor oral 150 mg/kg single 6 h before, cycle 7 days): 60% | Relative remission rate (%) (Example 128, Irinotecan (CPT-11) intramuscular injection 240 mg/kg single, CDK inhibitor oral 150 mg/kg single 2 h before, cycle 7 days): 50% | Relative remission rate (%) (Example 163, Docetaxel (DTX) intraperitoneal injection 10 mg/kg single, CDK inhibitor oral 150 mg/kg single 8 h before, cycle 8 days): 70% | Relative remission rate (%) (Example 164, Docetaxel (DTX) intraperitoneal injection 10 mg/kg single, CDK inhibitor oral 150 mg/kg single 12 h before, cycle 8 days): 60% | Relative remission rate (%) (Example 211, Carboplatin 5 mg/kg and paclitaxel 10 mg/kg intraperitoneal injection single, CDK inhibitor oral 150 mg/kg single, 8 h before, 10 days): 40% | Relative remission rate (%) (Example 212, Carboplatin 5 mg/kg and paclitaxel 10 mg/kg intraperitoneal injection single, CDK inhibitor oral 150 mg/kg single, 12 h before, 10 days): 70%

FN-1501
Relative remission rate (%) (Example 36, Fluorouracil (5-Fu) intraperitoneal injection 125 mg/kg single, CDK inhibitor oral 200 mg/kg single 6 h before, cycle 10 days): 60% | Relative remission rate (%) (Example 156, Docetaxel (DTX) intraperitoneal injection 10 mg/kg single, CDK inhibitor oral 200 mg/kg single 10 h before, cycle 8 days): 60% | Relative remission rate (%) (Example 169, Docetaxel (DTX) intravenous injection 10 mg/kg single, CDK inhibitor oral 200 mg/kg single 8 h before, cycle 8 days): 50%

COc1cc(F)ccc1-c1cc(Nc2cc(CS(C)(=N)=O)ccn2)ncc1F (centres unmarked) [BAY-1251152]
Relative remission rate (%) (Example 38, Fluorouracil (5-Fu) intraperitoneal injection 125 mg/kg single, CDK inhibitor oral 60 mg/kg single 8 h before, cycle 10 days): 20%

Nc1nccc(-c2ccc(O)c(-c3ccnc(N)n3)n2)n1 [BEY-1107]
Relative remission rate (%) (Example 154, Docetaxel (DTX) intraperitoneal injection 10 mg/kg single, CDK inhibitor oral 150 mg/kg single 8 h before, cycle 8 days): 40% | Relative remission rate (%) (Example 216, Fluorouracil 100 mg/kg and irinotecan 200 mg/kg intravenous injection single, CDK inhibitor oral 150 mg/kg single, 2 h before, 10 days): 30%

C[C@H]1CC[C@H](n2c3cnccc3c3cnc(Nc4ccc5c(n4)CCN(C(=O)CO)C5)nc32)CC1 [AMG925]
Relative remission rate (%) (Example 219, Fluorouracil 100 mg/kg and oxaliplatin 10 mg/kg intraperitoneal injection single, CDK inhibitor oral 150 mg/kg single, 2 h before, 10 days): 60%

CC(C)CC(=O)Nc1[nH]nc2c1CN(C(=O)C1CCN(C)CC1)C2(C)C [PHA-793887]
Relative remission rate (%) (Example 160, Docetaxel (DTX) intraperitoneal injection 10 mg/kg single, CDK inhibitor oral 70 mg/kg single 4 h before, cycle 8 days): 30%

NS(=O)(=O)c1ccc(S(=O)(=O)Nc2cccc3c(Cl)c[nH]c23)cc1 [Indisulam]
Relative remission rate (%) (Example 74, Oxaliplatin intraperitoneal injection 20 mg/kg single, CDK inhibitor oral 175 mg/kg single 4 h before, cycle 8 days): 20% | Relative remission rate (%) (Example 190, Gemcitabine (GEM) intraperitoneal injection 120 mg/kg single, CDK inhibitor oral 175 mg/kg single, 4 h before, 8 days): 40%

CN1CCN(C(=O)c2ccc3cc(CCNc4ncnc5ccc(C#N)cc45)ccc3c2)CC1 [BCD-115]
Relative remission rate (%) (Example 157, Docetaxel (DTX) intraperitoneal injection 10 mg/kg single, CDK inhibitor oral 80 mg/kg single 10 h before, cycle 8 days): 40% | Relative remission rate (%) (Example 217, Fluorouracil 100 mg/kg and irinotecan 200 mg/kg intravenous injection single, CDK inhibitor oral 80 mg/kg single, 4 h before, 10 days): 20%

CC(C)c1c2cc(-c3nc(Nc4ccc(N5CCNCC5)cn4)ncc3F)ccc2nn1C [TQB-3616]
Relative remission rate (%) (Example 32, Fluorouracil (5-Fu) intraperitoneal injection 125 mg/kg single, CDK inhibitor oral 70 mg/kg single 4 h before, cycle 10 days): 30% | Relative remission rate (%) (Example 148, Docetaxel (DTX) intraperitoneal injection 10 mg/kg single, CDK inhibitor oral 70 mg/kg single 4 h before, cycle 8 days): 50% | Relative remission rate (%) (Example 197, Gemcitabine 60 mg/kg and paclitaxel 10 mg/kg intravenous injection single, CDK inhibitor oral 70 mg/kg single, 4 h before, 8 days): 60% | Relative remission rate (%) (Example 220, Fluorouracil 100 mg/kg and oxaliplatin 10 mg/kg intraperitoneal injection single, CDK inhibitor oral 70 mg/kg single, 6 h before, 10 days): 60%

CN1CCN(c2ccc(Nc3ncc4cc(C#N)c(=O)n(C5CCCC5)c4n3)cc2)CC1 [ON123300]
Relative remission rate (%) (Example 121, Irinotecan (CPT-11) intraperitoneal injection 240 mg/kg single, CDK inhibitor oral 250 mg/kg single 8 h before, cycle 7 days): 60% | Relative remission rate (%) (Example 202, Gemcitabine 60 mg/kg and paclitaxel 10 mg/kg intraperitoneal injection single, CDK inhibitor oral 250 mg/kg single, 2 h before, 8 days): 50%
